Assay [1] has as its system human lymphoblastoid cell line (GM15850). Description: Acetylation levels of endogenous histone H3 by western blot. As to conditions: 20 µM, 48 h incubation, GM15850 cells. In kind it is cell-based. For orientation: In western blotting, separated proteins are transferred to a membrane and probed.
Assay [2] concerns the target recombinant human HDAC1 (Homo sapiens, UniProt Q13547). The assay can be described thus: Inhibition of recombinant HDAC1. The assay is classed as biochemical.
For assay [3], the target named is recombinant human HDAC3 (Homo sapiens, UniProt O15379). The assay can be described thus: Inhibition of recombinant HDAC3. The assay is classed as biochemical.

Non-standard residues stand in square brackets, D forms with d. Residues, ends and D or L forms follow the SMILES beside them. *: point of attachment. Asu = N[C@@H](CCCCCC(=O)O)C(=O)O; NH(2-NH2-phenyl) = Nc1ccccc1N*

Chain of recombinant human HDAC3 (O15379 whole entry): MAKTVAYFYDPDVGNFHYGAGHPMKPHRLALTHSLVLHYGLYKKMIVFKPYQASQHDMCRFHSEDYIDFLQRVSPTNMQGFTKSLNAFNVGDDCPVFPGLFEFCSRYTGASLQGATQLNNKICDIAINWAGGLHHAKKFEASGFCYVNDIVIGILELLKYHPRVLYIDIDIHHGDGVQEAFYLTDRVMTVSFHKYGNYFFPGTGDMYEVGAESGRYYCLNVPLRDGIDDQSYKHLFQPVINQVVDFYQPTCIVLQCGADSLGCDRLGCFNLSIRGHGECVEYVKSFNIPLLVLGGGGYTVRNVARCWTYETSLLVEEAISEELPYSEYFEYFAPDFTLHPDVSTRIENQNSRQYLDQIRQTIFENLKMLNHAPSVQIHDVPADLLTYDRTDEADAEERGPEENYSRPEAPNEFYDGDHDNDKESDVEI
Chain of recombinant human HDAC3 (Q9Y618 395-489 partner limits assumed): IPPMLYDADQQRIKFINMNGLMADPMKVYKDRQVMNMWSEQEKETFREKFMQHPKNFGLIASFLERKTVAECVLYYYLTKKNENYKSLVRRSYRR
Chain of recombinant human HDAC1 (Q13547 whole entry): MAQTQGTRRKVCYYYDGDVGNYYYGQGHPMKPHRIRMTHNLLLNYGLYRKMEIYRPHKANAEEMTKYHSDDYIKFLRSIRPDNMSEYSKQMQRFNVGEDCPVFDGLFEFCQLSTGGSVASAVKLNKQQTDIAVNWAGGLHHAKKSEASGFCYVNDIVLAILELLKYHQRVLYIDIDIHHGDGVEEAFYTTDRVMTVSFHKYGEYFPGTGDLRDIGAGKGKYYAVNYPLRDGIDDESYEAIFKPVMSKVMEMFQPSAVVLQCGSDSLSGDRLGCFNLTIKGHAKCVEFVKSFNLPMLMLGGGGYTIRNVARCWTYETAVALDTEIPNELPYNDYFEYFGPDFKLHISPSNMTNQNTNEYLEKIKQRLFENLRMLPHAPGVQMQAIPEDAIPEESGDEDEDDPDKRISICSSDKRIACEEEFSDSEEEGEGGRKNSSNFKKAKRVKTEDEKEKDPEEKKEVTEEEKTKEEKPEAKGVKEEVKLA

In the case of `N=C(N)NCCC[C@H](N)C(=O)NCC(=O)N[C@@H](CCCCCC(=O)Nc1ccccc1N)C(=O)Nc1ccccc1N` [compound 10], the “effect on acetylation of endogenous histone H3” value (shortened to “effect on acetylation”) in assay [1] is “relatively stronger effects”.

A word on the IC50: it is the concentration needed to halve the response being measured. In the case of `N=C(N)NCCC[C@H](N)C(=O)NCC(=O)N[C@@H](CCCCCC(=O)Nc1ccccc1N)C(=O)NCC(=O)O` [compound 13] (H-RG[Asu](NH(2-NH2-phenyl))G-OH; N-terminus and C-terminus assumed), the concentration for half-maximal inhibition (IC50) in assay [2] came to 532 µM; in assay [3] it was 69.3 µM. The “effect on acetylation” value in assay [1] is given as “no effect”.

As for `Cc1ccc(C(=O)NCC(=O)NCCC(=O)Nc2ccccc2N)cc1` [compound 15], in assay [1], the “effect on acetylation” value is reported as “relatively strong effect”.

Take `Cc1ccc(C(=O)N[C@@H](CCCNC(=N)N)C(=O)NCCC(=O)Nc2ccccc2N)cc1` [compound 16]: the “effect on acetylation” value in assay [1] was “no such effect”.

Values taken from article PMC3045849 (Bioorganic & medicinal chemistry letters, 2009).
